In PMC8243516, “Inhibition of lysosomal phospholipase A2 predicts drug-induced phospholipidosis” (Journal of Lipid Research, 2021):
Where two headings read alike, the source gives them in different places.

What was measured:
[1] = biological target: T1, recombinant mouse LPLA2 (PLA2G15) (Mus musculus, UniProt Q8VEB4); test: Transacylase activity of LPLA2 (1-O-acyl-N-acetylsphingosine synthase, cell-free liposome assay); format: biochemical; settings: for LPLA2 inhibition (in words): acyl transferase activity
T1 construct: purchased Proteos Inc. (Kalamazoo, MI)
T1 sequence (Q8VEB4 34-412): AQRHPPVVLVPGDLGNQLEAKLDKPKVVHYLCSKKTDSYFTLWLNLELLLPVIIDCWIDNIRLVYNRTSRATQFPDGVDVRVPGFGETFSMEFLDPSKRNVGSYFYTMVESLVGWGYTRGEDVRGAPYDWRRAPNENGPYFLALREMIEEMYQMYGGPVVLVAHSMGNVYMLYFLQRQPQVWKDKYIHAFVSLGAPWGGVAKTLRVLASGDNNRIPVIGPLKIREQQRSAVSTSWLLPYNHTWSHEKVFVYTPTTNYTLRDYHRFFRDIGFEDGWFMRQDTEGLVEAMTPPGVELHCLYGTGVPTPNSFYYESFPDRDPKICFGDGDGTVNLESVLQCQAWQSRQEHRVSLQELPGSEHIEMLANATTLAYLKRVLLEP

LPLA2 = biological target: T2, LPLA2 (Mus musculus, UniProt Q8VEB4); test: LPLA2 thermal stability measurement (SYPRO Orange Tm); format: binding
T2 construct: purchased Proteos Inc. (Kalamazoo, MI)
T2 sequence (Q8VEB4 34-412): T1 sequence (Q8VEB4 34-412)

[2] = cited from earlier work
MDCK cells = test: Screening phospholipidosis assay (LipidTOX Red / NucBlue Live fluorescence ratio); settings: for Ratio (15 μM): LipidTOX Red to NucBlue Live fluorescence ratio, 24 h
phospholipidosis = phospholipidosis reported in vitro; Refs of Table 1; cited from earlier work
[3] = 1-O-acyl N-acetylsphingosine synthase activity, pH 4.5, DOPC/sulfatide liposomes, read-out: LPLA2 IC50
[4] = LPLA2 dependent 1-O-acyl N-acetylsphingosine synthase activity, read-out: LPLA2 IC50
[5] = ref Pubchem and chEMBL database
[6] = ref Pubchem and chEMBL databases

| IC50 [1, 4] | (ΔTm)c-(ΔTm)d, difference in melting temperature of LPLA2 alone or in the presence of drug (LPLA2; N=3 ± SD) | SMILES | pKa (basic) [2, 5] | Ratio (15 μM) (MDCK cells) | also measured |
| --- | --- | --- | --- | --- | --- |
| 38 µM | 0.15 ± 0.1 °C | COc1ccc2[nH]cc(CCNC(C)=O)c2c1 [Melatonin] | -1.6 | 0.26 | – |
| – | -0.23 ± 0.1 °C | Cc1ccc(Cl)c(Nc2ccccc2C(=O)O)c1Cl [Meclofenamic acid] | -3.6 | 0.52 | – |
| 14.9 µM | -1.20 ± 0.1 °C | CC[C@H](NC(=O)c1c(C)c(-c2ccccc2)nc2ccccc12)c1ccccc1 [sb222200] | 9.57 | 0.34 | – |
| 6.82 µM | 2.00 ± 0.2 °C | CCCCCCCCNC(C)C(O)c1ccc(SC(C)C)cc1 (stereo not drawn) [Suloctidil] | 9.76 | 0.66 | – |
| 60 µM | 0.13 ± 0.1 °C | O=C1NC(=O)C(c2ccccc2)(c2ccccc2)N1 [Phenytoin] | – | 0.38 | – |
| 300 µM | -1.85 ± 0.9 °C | COc1ccc(C2CNC(=O)C2)cc1OC1CCCC1 (stereo not drawn) [Rolipram] | -1.9 | 0.19 | – |
| 250 µM | 0.83 ± 0.1 °C | NC(=O)C1(N2CCCCC2)CCN(CCCC(=O)c2ccc(F)cc2)CC1 [Pipamperone] | 8.96 | 0.37 | – |
| 146 µM | – | CN1CCc2c(c3ccccc3n2Cc2ccccc2)C1 [Mebhydrolin] | 6.7 | 2.54 | – |
| 13.4 µM | -1.90 ± 02 °C | Cc1nc2sccn2c(=O)c1CCN1CCC(=C(c2ccc(F)cc2)c2ccc(F)cc2)CC1 [Ritanserin] | 8 | 0.19 | – |
| 12.9 µM | 1.30 ± 0.1 °C | COCC(=O)O[C@]1(CCN(C)CCCc2nc3ccccc3[nH]2)CCc2cc(F)ccc2[C@@H]1C(C)C [Mibefradil] | 9.82 | 1.21 | – |
| – | 0 °C | CCCOc1ccc(C(=O)OCCN(CC)CC)cc1N [Proparacaine, 2-(diethylamino)ethyl 3-amino-4-propoxybenzoate] | – | – | IC50 [1, 3]: 2470 µM; LPLA2 inhibition (in words) [1]: millimolar concentrations; pKa (basic) [2, 6]: 8.56; In Vitro PLD (phospholipidosis): Yes |

The remaining lines, values behind:

| SMILES | IC50 [1, 4] | (ΔTm)c-(ΔTm)d, difference in melting temperature of LPLA2 alone or in the presence of drug (LPLA2; N=3 ± SD) | pKa (basic) [2, 5] | Ratio (15 μM) (MDCK cells) | also measured |
| --- | --- | --- | --- | --- | --- |
| O=C(O)[C@@H]1C[C@@H](C2CCCCC2)CN1C(=O)CP(=O)(O)CCCCc1ccccc1 [Fosinoprilat] | 5.76 µM | -1.45 ± 0.9 °C | -4.7 | 0.19 | IC50 [1, 3]: 5.8 µM; Signal in the LipidTOX assay (in words) (MDCK cells): positive signal |
| O=C(CCCN1CCN(c2ccccn2)CC1)c1ccc(F)cc1 [Azaperone] | – | 0.93 ± 0.1 °C | 7.16 | 0.43 | – |
| COc1ccc(C(=O)Nc2ccccc2CCC2CCCCN2C)cc1 (stereo not drawn) [Encainide, 4-methoxy-N-{2-[2-(1-methylpiperidin-2-yl)ethyl]phenyl} benzamide] | – | -0.76 ± 0.1 °C | – | 0.23 | IC50 [1, 3]: 76.1 µM; pKa (basic) [2, 6]: 9.41; In Vitro PLD (phospholipidosis): Yes |
| CC(COc1ccccc1)NC(C)C(O)c1ccc(O)cc1 (stereo not drawn) [Isoxsuprine] | – | 1.1 ± 0.0 °C | 9 | 1.22 | – |
| COc1cc(C(=O)OCCCN2CCCN(CCCOC(=O)c3cc(OC)c(OC)c(OC)c3)CC2)cc(OC)c1OC [Dilazep] | 59.8 µM | 0.11 ± 0.1 °C | 9.54 | 1.17 | – |
| NCCc1cc(O)c(O)cc1O [6-Hydroxydopamine] | – | -0.14 ± 0.1 °C | – | 0.93 | – |
| CCc1oc2ccccc2c1C(=O)c1cc(Br)c(O)c(Br)c1 [Benzbromarone, 2,6-dibromo-4-(2-ethyl-1-benzofuran-3-carbonyl)phenol] | – | – | – | 0.5 | IC50 ([1]; LPLA2 IC50, 1-O-acyl N-acetylsphingosine synthase activity, pH 4.5, DOPC/sulfatide liposomes): 3.8 µM; (ΔTm)c-(ΔTm)d, difference in melting temperature of LPLA2 alone or in the presence of drug (LPLA2): -1.40 ± 0.3 °C; pKa (basic) [2, 6]: -3.8; In Vitro PLD (phospholipidosis): Yes |
| C[C@]12CC[C@@H]3c4ccc(O)cc4C[C@@H](CCCCCCCCC[S+]([O-])CCCC(F)(F)C(F)(F)F)[C@H]3[C@@H]1CC[C@@H]2O (stereo partly drawn) [Fulvestrant] | 61.8 µM | -1.05 ± 4.0 °C | -0.88 | 0.37 | – |
| CN1CCN(CCCN2c3ccccc3Sc3ccc(C(F)(F)F)cc32)CC1 [Trifluoperazine] | 6.87 µM | – | 8.39 | 0.81 | (ΔTm)c-(ΔTm)d, difference in melting temperature of LPLA2 alone or in the presence of drug (LPLA2): 0.49 ± 0.3 °C |
| CC(C)Cn1cnc2c(N)nc3ccccc3c21 [Imiquimod] | 160 µM | 0.66 ± 0.2 °C | 5.01 | 0.07 | – |
| NNc1nncc2ccccc12 [Hydralazine] | 100 µM | 1.20 ± 0.1 °C | 6.4 | 0.6 | – |
| Cc1cc(C(C)(C)C)cc(C)c1CC1=NCCN1 [Xylometazoline] | 44.3 µM | 0.66 ± 0.0 °C | 10.29 | 0.16 | – |
| Clc1cccc(Cl)c1N=C1NCCN1 [Clonidine] | – | -0.62 ± 0.0 °C | 8.16 | 0.25 | – |
| CN(Cc1ccc(C(C)(C)C)cc1)Cc1cccc2ccccc12 [Butenafine] | 41.2 µM | -2.22 ± 0.3 °C | 9.23 | 0.31 | – |
| CC(=O)O[C@H]1C[C@@]2(C)[C@@H](C[C@@H](O)[C@H]3[C@@]4(C)CC[C@@H](O)[C@@H](C)[C@@H]4CC[C@@]32C)/C1=C(\CCC=C(C)C)C(=O)O [Fuscidic acid] | 231 µM | 0.94 ± 0.1 °C | -0.2 | 0.23 | – |
| Oc1ncnc2[nH]ncc12 [Allopurinol] | – | 0.67 ± 0.2 °C | 2.57 | 0.37 | – |
| Cl.NCCc1ccc(O)c(O)c1 [3-Hydroxytyramine hydrochloride] | – | – | – | 0.91 | (ΔTm)c-(ΔTm)d, difference in melting temperature of LPLA2 alone or in the presence of drug (LPLA2): 0.75 ± 0.0 °C |
| Cn1c(=O)[nH]c2ncn(C)c2c1=O [1,7-Dimethylxanthine] | – | 0 °C | 13.5 | 0.55 | – |
| O=C1NCC2(CCN(CCc3ccccc3)CC2)O1 [Fenspiride] | – | -1.67 ± 1.0 °C | 9.37 | 0.07 | – |
| NC(=O)N1c2ccccc2C=Cc2ccccc21 [Carbamazepine] | 106 µM | -1.26 ± 0.1 °C | -3.8 | 0.18 | – |
| CCOC(=O)COc1ccc2c(C)c(CCN(CC)CC)c(=O)oc2c1Cl [Cloricromen] | 285 µM | 0.24 ± 0.1 °C | 9.1 | 0.1 | – |
| CCN1CCCC1CNC(=O)c1cc(S(=O)(=O)CC)c(N)cc1OC (stereo not drawn) [Amisulpride] | 1920 µM | 0 °C | 7.05 | 0.08 | – |
| COc1cc2nc(N3CCN(C(=O)c4ccco4)C4CCCCC43)nc(N)c2cc1OC (stereo not drawn) [Cyclazosin, 1-(4-amino-6,7-dimethoxy-2-quinazolinyl)-4-(2-furanylcarbonyl) decahydroquinoxaline] | – | 0.18 ± 0.1 °C | – | – | IC50 [1, 3]: 30.8 µM; pKa (basic) [2, 6]: 9.89; In Vitro PLD (phospholipidosis): Yes |
| CC(C)NCC(O)COc1ccc(CCOCC2CC2)cc1 (stereo not drawn) [Betaxolol, 1-{4-[2-(cyclopropylmethoxy)ethyl]phenoxy}-3-[(propan-2-yl)amino]propan-2-ol] | – | -1.29 ± 0.9 °C | – | – | LPLA2 inhibition (in words) [1]: no inhibitory activity; pKa (basic) [2, 6]: 9.67; In Vitro PLD (phospholipidosis): Yes |
